Source: patent US8357678B2, “Chair ruthenium complexes and their use as anticancer agents” (Guangdong Pharmaceutical University, priority 2007, dated 2013)

What was measured:
Experiment in all cases: MTT assay, inhibitory activity against growth of cancer cells
Type in all cases: cell-based
[1] = test system: Human lung adenocarcinoma epithelial cell line A-549; details: Dosage 5 μg/ml, 72 h incubation
Method: (§1) The inhibitory activity of these chair ruthenium(II) complexes have been evaluated by MTT assay by using 5-fluorouracil (5-Fu) as positive control. Human hepatocarcinoma cell line Bel-7402, human intestinal adenocarcinoma cell line HCT-8 and Human lung adenocarcinoma epithelial cell line A-549 were supplied by the Institute of Materia Medica, Chinese Academy of Medical Sciences & Peking Union Medical College. The determination of the cytotoxicity (dark toxicity) of the compound was carried out in parallel with the phototoxicity determination following the same procedure, with the exclusion of the irradiation.
(§2) General method: Cells were diluted to 5000/ml by PRMI1640 minimal essential medium with 10% fetal calf serum (FCS), plated at 100 μl cells per well in a 96-well Corning microtiter plate, and incubated at 37° C. with 5% CO2 for 24 h. After cell was covered a single layer, drugs (10 μl) was added, and PRMI1640 minimal essential medium was supplied to make the total volume to 200 μl. After incubated for another 72 h at 37° C., 5% CO2, the medium was removed and freshly prepared MTT dissolved in DMSO (200 μl) was added, and the OD value was recorded on ELISA Reader at 544 nm. The inhibitory activity of ruthenium complexes was calculated according to equation: Inhibitory activity(%)=([…])/(ODcontrol−ODblank)×100%.

[2] = test system: human hepatocarcinoma cell line Bel-7402; details: 72 h incubation
Method: as §1, §2

[3] = test system: human intestinal adenocarcinoma cell line HCT-8; details: 72 h incubation
Method: as §1, §2

Compound	Inhibitory activity (%) A-549 [1]	Inhibitory activity (%) BEL-7402 ([2]; Dosage 5 μg/ml)	Inhibitory activity (%) BEL-7402 ([2]; Dosage 50 μg/ml)	Inhibitory activity (%) HCT-8 ([3]; Dosage 5 μg/ml)	Inhibitory activity (%) HCT-8 ([3]; Dosage 50 μg/ml)
FC(F)(F)c1ccccc1-c1nc2c3ccc[n+]4c3c3c(ccc[n+]3[Ru-4]435([n+]4ccccc4-c4cccc[n+]43)[n+]3ccccc3-c3cccc[n+]35)c2[nH]1.F[P-](F)(F)(F)(F)F.F[P-](F)(F)(F)(F)F [Δ-1, Δ-[Ru(bpy)2(tFPIP)](PF6)2]	62.0%	85.0%	88.3%	81.6%	86.2%
F[P-](F)(F)(F)(F)F.F[P-](F)(F)(F)(F)F.c1cc[n+]2c(c1)-c1cccc[n+]1[Ru-4]213([n+]2ccccc2-c2cccc[n+]21)[n+]1ccccc1-c1[nH]c2cc4ccccc4cc2[n+]13 [Δ-4, Δ-[Ru(bpy)2(PYNI)](PF6)2]	−8.2%	2.8%	36.0%	1.8%	38.6%
FC(F)(F)c1ccccc1-c1nc2c3ccc[n+]4c3c3c(ccc[n+]3[Ru-4]435([n+]4ccccc4-c4cccc[n+]43)[n+]3ccccc3-c3cccc[n+]35)c2[nH]1.F[P-](F)(F)(F)(F)F.F[P-](F)(F)(F)(F)F [Λ-1, Λ-[Ru(bpy)2(tFPIP)](PF6)2]	56.4%	85.2%	88.8%	83.0%	88.9%
F[P-](F)(F)(F)(F)F.F[P-](F)(F)(F)(F)F.c1cc[n+]2c(c1)-c1cccc[n+]1[Ru-4]213([n+]2ccccc2-c2cccc[n+]21)[n+]1cccc2c4nc(-c5ccc6c(c5)OCCO6)[nH]c4c4ccc[n+]3c4c21 [Λ-3, Λ-[Ru(bpy)2(IPBH)](PF6)2]	−0.92%	3.0%	44.3%	2.1%	39.1%
F[P-](F)(F)(F)(F)F.F[P-](F)(F)(F)(F)F.c1cc[n+]2c(c1)-c1cccc[n+]1[Ru-4]213([n+]2ccccc2-c2cccc[n+]21)[n+]1ccccc1-c1[nH]c2cc4ccccc4cc2[n+]13 [Λ-4, Λ-[Ru(bpy)2(PYNI)](PF6)2]	−2.3%	4.4%	22.6%	3.6%	21.4%
Δ-[Ru(bpy)2(IPBP)](PF6)2 [Δ-2]	18.5%	9.6%	86.8%	13.1%	83.4%
Λ-[Ru(bpy)2(IPBP)](PF6)2 [Λ-2]	−0.52%	0.19%	64.9%	2.23%	53.7%
